Test results as given in patent publication US11850279B2, “Platforms and methods for optimizing host antigen presentation and host antitumor and antipathogen immunity” (OHIO STATE INNOVATION FOUNDATION, priority 2016, dated 2023).

Key:
CD8^+ T cells = assay: In vivo CD8+ T cell priming by activated B cells / CABs
Excerpt: In other words, in vivo CD8^+ T cell priming is increased by antecedent treatment with Flt-3L and GM-CSF.
In vivo CD8^+ T cell priming is increased by CHX treatment of activated B cells prior to injection. CHX can boost antigen presenting capacity by increasing survival of activated B cells.
While in this model, GM-CSF/Flt-3L administration improved the efficacy of OVA-loaded B cell treatment, it is important to note that this cytokine treatment can improve the efficacy of intervention with other antigen-loaded antigen presenting cells (e.g. dendritic cell-based vaccine platforms).

tumor [1] = assay: Anti-tumor activity of CABs (tumor size); assay type: in vivo, mouse
Experimental: The zero-length cross linker EDAC promotes attachment of amino-containing molecules to activated B cells, such as CABs (Chlamydia activated B cells). In the bottom panel, the antigen presenting ability of activated B cells (or other professional APCs) can be enhanced by crosslinking desired antigen (protein or peptide) with EDAC prior to in vivo administration.
“Low dose” is therefore defined as 2 μg-8 μg per kg in humans for Flt-3L, and 0.5 μg-2 μg per kg in humans for GM-CSF. “High dose” is defined as any amount above 8 μg/kg of Flt-3L and above 2 μg/kg of GM-CSF.

endogenous DCs = assay: Activation of endogenous DCs by α-GC loaded CABs; settings: α-GC loading of CABs prior to in vivo administration
Excerpt: In addition to GM-CSF and Flt-3L, antigen presenting capabilities of activated B cells (or other professional APCs) are enhanced by in vitro loading of APCs with α-GC prior to in vivo administration.

tumor [2] = settings: cited from earlier work
NKT cells = settings: human, in vivo; cited from earlier work

C[C@@H]1C[C@@H]([C@H](O)CC2CC(=O)NC(=O)C2)C(=O)[C@@H](C)C1 [CHX, Cycloheximide]
in vivo CD8^+ T cell priming (CD8^+ T cells; CHX treatment of activated B cells prior to injection): increased

CCN=C=NCCCN(C)C [EDAC, 1-ethyl 1-3-(3-dimethylaminopropyl)-carbodiimide]
antitumor therapeutic activity (tumor [1]; peptide chemically conjugated to CABs using EDAC vs simple peptide pulsing/loading): increases antitumor therapeutic activity

CCCCCCCCCCCCCCCCCCCCCCCCCC(=O)N[C@@H](CO[C@H]1O[C@H](CO)[C@H](O)[C@H](O)[C@H]1O)[C@H](O)[C@H](O)CCCCCCCCCCCCCC [α-GC, α-Galactosylceramide]
effector function of primed antigen-specific CD8^+ T cells (CD8^+ T cells; α-GC-loaded CABs): enhance | tumor size (tumor [1]; α-GC loaded activated B cells, effect dependent on NKT cells): more effectively reduce tumor size | activation of endogenous DCs (endogenous DCs): dramatically increase | tumor growth (tumor [2]): inhibit tumor growth | NKT cells in the peripheral blood of treated cancer patients (NKT cells): fell to undetectable levels
